Each structure is given as a SMILES string. Structures can show the parent of a compound that is named as a salt.

For the assay, the system named is HIV-1 single-round infectious reporter virus. In words: Single-round infectious HIV-1 luciferase reporter virus infection of HeLa CD4 cells (antiviral EC50). Type of assay: cell-based. The following applies: Human immunodeficiency virus 1, HeLa, read-out: EC50 Group from Table 3. As to the method:
• Virus production—Human embryonic Kidney cell line, 293T, was propagated in Dulbecco's Modified Eagle Medium (Invitrogen, Carlsbad, Calif.) containing 10% fetal Bovine serum (FBS, Sigma, St. Louis, Mo.). • Virus infection—Human epithelial cell line, HeLa, expressing the HIV-1 receptor CD4 was propagated in Dulbecco's Modified Eagle Medium (Invitrogen, Carlsbad, Calif.) containing 10% fetal Bovine serum (FBS, Sigma, St. Louis, Mo.) and supplemented with 0.2 mg/mL Geneticin (Invitrogen, Carlsbad, Calif.). Virus-Single-round infectious reporter virus was produced by co-transfecting human embryonic Kidney 293 cells with an HIV-1 envelope DNA expression vector and a proviral cDNA containing an envelope deletion mutation and the luciferase reporter gene inserted in place of HIV-1 nef sequences (Chen et al, Ref. 41). Transfections were performed using lipofectAMINE PLUS reagent as described by the manufacturer (Invitrogen, Carlsbad, Calif.). Experiment • 1. HeLa CD4 cells were plated in 96 well plates at a cell density of 1×10^4 cells per well in 100 μl Dulbecco's Modified Eagle Medium containing 10% fetal Bovine serum and incubated overnight. • 2. Compound was added in a 2 μl dimethylsulfoxide solution, so that the final assay concentration would be ≦10 μM. • 3. 100 μl of single-round infectious reporter virus in Dulbecco's Modified Eagle Medium was then added to the plated cells and compound at an approximate multiplicity of infection (MOI) of 0.01, resulting in a final volume of 200 μl per well. • 4. Virally-infected cells were incubated at 37 degrees Celsius, in a CO2 incubator, and harvested 72 h after infection. • 5. Viral infection was monitored by measuring luciferase expression from viral DNA in the infected cells using a luciferase reporter gene assay kit, as described by the manufacturer (Roche Molecular Biochemicals, Indianapolis, Ind.). Infected cell supernatants were removed and 50 μl of lysis buffer was added per well. After 15 minutes, 50 μl of freshly-reconstituted luciferase assay reagent was added per well. Luciferase activity was then quantified by measuring luminescence using a Wallac microbeta scintillation counter. • 6. The percent inhibition for each compound was calculated by quantifying the level of luciferase expression in cells infected in the presence of each compound as a percentage of that observed for cells infected in the absence of compound and subtracting such a determined value from 100. • 7. An EC50 provides a method for comparing the antiviral potency of the compounds of this disclosure. The effective concentration for fifty percent inhibition (EC50) was calculated with the Microsoft Excel Xlfit curve fitting software. For each compound, curves were generated from percent inhibition calculated at 10 different concentrations by using a four parameter logistic model (model 205). Table 3 is the key for the data in Table 4. Results
Background: In a reporter assay the amount or activity of a reporter protein is the signal.

As for `COc1cnc(-n2ccnn2)c2[nH]cc(C(=O)C(=O)N3CCN(c4nnnn4-c4ccccn4)CC3)c12` [A-59], the EC50 is less than 500 nM.
Regarding `COc1cnc(-n2cnc(C)n2)c2[nH]cc(C(=O)C(=O)N3CCN(c4nnnn4-c4ccccc4)[C@@H](C)C3)c12` [A-60], the EC50 is less than 500 nM.
The figure for `C[C@H]1CN(C(=O)C(=O)c2c[nH]c3c(-n4ccnn4)ncc(F)c23)CCN1c1nnnn1-c1ccccc1` [A-61] is less than 500 nM.
Next, `CCOc1cccnc1N1CCN(C(=O)C(=O)c2c[nH]c3c(-n4ccnn4)ncc(F)c23)CC1` [A-62]: less than 500 nM; `CCOc1cccnc1N1CCN(C(=O)C(=O)c2c[nH]c3c(-n4cnc(C)n4)ncc(OC)c23)CC1` [A-63]: less than 500 nM.
On to `COc1cnc(-c2ncc(OC)c3c(C(=O)C(=O)N4CCN(c5nnnn5-c5ccccc5)CC4)c[nH]c23)c2[nH]ccc12` [A-64], for which the EC50 was less than 500 nM.
The figure for `COc1cnc(-n2cnc(C)n2)c2[nH]cc(C(=O)C(=O)N3CCN(c4ncccc4C(O)c4nccs4)CC3)c12` (stereo not drawn) [A-66] is less than 500 nM.
Next, `O=C(c1nccs1)c1cccnc1N1CCN(C(=O)C(=O)c2c[nH]c3cccc(F)c23)CC1` [A-67]: more than 500 nM; `CCc1ncn(-c2ncc(OC)c3c(C(=O)C(=O)N4CCN(c5ncccc5C(=O)c5nccs5)CC4)c[nH]c23)n1` [A-68]: less than 500 nM.
`CCc1ncn(-c2ncc(OC)c3c(C(=O)C(=O)N4CCN(c5nnnn5-c5ccccn5)CC4)c[nH]c23)n1` [A-69]: the EC50 is less than 500 nM.
The figure for `CCc1ncn(-c2ncc(OC)c3c(C(=O)C(=O)N4CCN(c5nnnn5-c5ccccc5)CC4)c[nH]c23)n1` [A-70] is less than 500 nM; for `O=C(C(=O)N1[C@@H]2CC[C@H]1CN(c1nnnn1-c1ccccc1)C2)c1c[nH]c2c(-n3ccnn3)ncc(F)c12` [A-71] it is less than 500 nM; for `O=C(C(=O)N1C[C@@H]2CC[C@H]1CN2c1nnnn1-c1ccccc1)c1c[nH]c2c(-n3ccnn3)ncc(F)c12` [A-72] it is less than 500 nM.
The figure for `COc1cnc(-n2cnc(C)n2)c2[nH]cc(C(=O)C(=O)N3[C@H](C)CN(c4nnnn4-c4ccccc4)C[C@@H]3C)c12` [A-73] is less than 500 nM.
For the compound `O=C(C(=O)N1C[C@@H]2C[C@H]1CN2c1nnnn1-c1ccccc1)c1c[nH]c2c(-n3ccnn3)ncc(F)c12` [A-74], the EC50 is more than 500 nM.
Next, `Cc1ccnn1-c1ncc(F)c2c(C(=O)C(=O)N3CCN(c4nnnn4-c4ccccc4)CC3)c[nH]c12` [B-3, 1-(4-fluoro-7-(5-methyl-1H-pyrazol-1-yl)-1H-pyrrolo[2,3-c]pyridin-3-yl)-2-(4-(1-phenyl-1H-tetrazol-5-yl)piperazin-1-yl)ethane-1,2-dione]: less than 500 nM; `Nc1ccn(-c2ncc(F)c3c(C(=O)C(=O)N4CCN(c5nnnn5-c5ccccc5)CC4)c[nH]c23)n1` [B-4, 1-(7-(3-amino-1H-pyrazol-1-yl)-4-fluoro-1H-pyrrolo[2,3-c]pyridin-3-yl)-2-(4-(1-phenyl-1H-tetrazol-5-yl)piperazin-1-yl)ethane-1,2-dione]: less than 500 nM; `Nc1ccnn1-c1ncc(F)c2c(C(=O)C(=O)N3CCN(c4nnnn4-c4ccccc4)CC3)c[nH]c12` [B-5, 1-(7-(5-amino-1H-pyrazol-1-yl)-4-fluoro-1H-pyrrolo[2,3-c]pyridin-3-yl)-2-(4-(1-phenyl-1H-tetrazol-5-yl)piperazin-1-yl)ethane-1,2-dione]: less than 500 nM.
The figure for `COc1cnc(-c2cc(C(=O)NCCO)[nH]n2)c2[nH]cc(C(=O)C(=O)N3CCN(c4nnnn4-c4ccccc4)CC3)c12` [B-8, N-(2-hydroxyethyl)-3-(4-methoxy-3-(2-oxo-2-(4-(1-phenyl-1H-tetrazol-5-yl)piperazin-1-yl)acetyl)-1H-pyrrolo[2,3-c]pyridin-7-yl)-1H-pyrazole-5-carboxamide.TFA] is less than 500 nM; for `COc1cnc(-c2cc(C(=O)NCCOCCO)[nH]n2)c2[nH]cc(C(=O)C(=O)N3CCN(c4nnnn4-c4ccccc4)CC3)c12` [B-9, N-(2-(2-hydroxyethoxy)ethyl)-3-(4-methoxy-3-(2-oxo-2-(4-(1-phenyl-1H-tetrazol-5-yl)piperazin-1-yl)acetyl)-1H-pyrrolo[2,3-c]pyridin-7-yl)-1H-pyrazole-5-carboxamide.TFA] it is less than 500 nM.
`COc1cnc(-c2cc(C(=O)NCCCN3CCN(C)CC3)[nH]n2)c2[nH]cc(C(=O)C(=O)N3CCN(c4nnnn4-c4ccccc4)CC3)c12` [B-10, 3-(4-methoxy-3-(2-oxo-2-(4-(1-phenyl-1H-tetrazol-5-yl)piperazin-1-yl)acetyl)-1H-pyrrolo[2,3-c]pyridin-7-yl)-N-(3-(4-methylpiperazin-1-yl)propyl)-1H-pyrazole-5-carboxamide.TFA]: the EC50 was less than 500 nM.
The figure for `COc1cnc(-c2cc(C(=O)NCCN3CCCC3)[nH]n2)c2[nH]cc(C(=O)C(=O)N3CCN(c4nnnn4-c4ccccc4)CC3)c12` [B-11, 3-(4-methoxy-3-(2-oxo-2-(4-(1-phenyl-1H-tetrazol-5-yl)piperazin-1-yl)acetyl)-1H-pyrrolo[2,3-c]pyridin-7-yl)-N-(2-(pyrrolidin-1-yl)ethyl)-1H-pyrazole-5-carboxamide.TFA] is less than 500 nM; for `COc1cnc(-c2cc(C(=O)NCCc3ccncc3)[nH]n2)c2[nH]cc(C(=O)C(=O)N3CCN(c4nnnn4-c4ccccc4)CC3)c12` [B-12, 3-(4-methoxy-3-(2-oxo-2-(4-(1-phenyl-1H-tetrazol-5-yl)piperazin-1-yl)acetyl)-1H-pyrrolo[2,3-c]pyridin-7-yl)-N-(2-(pyridin-4-yl)ethyl)-1H-pyrazole-5-carboxamide.TFA] it is less than 500 nM; for `COc1cnc(-c2cc(C(=O)NCCN3CCOCC3)[nH]n2)c2[nH]cc(C(=O)C(=O)N3CCN(c4nnnn4-c4ccccc4)CC3)c12` [B-13, 3-(4-methoxy-3-(2-oxo-2-(4-(1-phenyl-1H-tetrazol-5-yl)piperazin-1-yl)acetyl)-1H-pyrrolo[2,3-c]pyridin-7-yl)-N-(2-morpholinoethyl)-1H-pyrazole-5-carboxamide.TFA] it is less than 500 nM.
Next, `COc1cnc(-c2cc(C(=O)NCCN3CCNCC3)[nH]n2)c2[nH]cc(C(=O)C(=O)N3CCN(c4nnnn4-c4ccccc4)CC3)c12` [B-14, 3-(4-methoxy-3-(2-oxo-2-(4-(1-phenyl-1H-tetrazol-5-yl)piperazin-1-yl)acetyl)-1H-pyrrolo[2,3-c]pyridin-7-yl)-N-(2-(piperazin-1-yl)ethyl)-1H-pyrazole-5-carboxamide.TFA]: less than 500 nM.
On to `COc1cnc(-c2cc(C(=O)NCCCN(C)C)[nH]n2)c2[nH]cc(C(=O)C(=O)N3CCN(c4nnnn4-c4ccccc4)CC3)c12` [B-15, N-(3-(dimethylamino)propyl)-3-(4-methoxy-3-(2-oxo-2-(4-(1-phenyl-1H-tetrazol-5-yl)piperazin-1-yl)acetyl)-1H-pyrrolo[2,3-c]pyridin-7-yl)-1H-pyrazole-5-carboxamide.TFA], for which the EC50 was less than 500 nM.
With `COc1cnc(-c2cc(C(=O)NCCN(C)C)[nH]n2)c2[nH]cc(C(=O)C(=O)N3CCN(c4nnnn4-c4ccccc4)CC3)c12` [B-16, N-(2-(dimethylamino)ethyl)-3-(4-methoxy-3-(2-oxo-2-(4-(1-phenyl-1H-tetrazol-5-yl)piperazin-1-yl)acetyl)-1H-pyrrolo[2,3-c]pyridin-7-yl)-1H-pyrazole-5-carboxamide.TFA], the EC50 was less than 500 nM.

What is called EC50 is the concentration needed to bring the measured effect to its halfway point.

These data come from patent publication US7807676B2, “Diketo-Piperazine and Piperidine derivatives as antiviral agents” (priority 2006, dated 2010).
